From publication PMC8037182, “Solvothermal Synthesis of Multiple Dihydropyrimidinones at a Time as Inhibitors of Eg5” (Molecules, 2021)
pIC50: −log10 of the molar value.

Assays:
Caco-2 cell line = test: Cytotoxicity MTS assay, Caco-2 cell line; assay type: cell-based; conditions: for OD490 Mean / OD490 Well 1 / OD490 Well 2 / OD490 Well 3: Caco-2 cell line
Description: (§1) The positive compounds (IC50 < 100 μM) obtained from the primary Eg5 motor protein ATPase assay were tested for antiproliferative activity in vitro against Caco-2 cell line, Hela cell line, L929 cell line and T24 cell line by performing MTS assay. Cells were introduced into 96-well plates at a density of 1000 cells per well. After 24 h incubation, the cells were exposed with compounds at final concentrations ranging from 0.5 to 100 µM for 24 h. DMSO was used at a final concentration of 0.025% as blank control, monastrol was used as the positive control. Then 20 µL (CellTiter 96® AQueous One Solution Promega, Madison, WI, USA) reagent was added in each well. After 2 h at 37 °C in a 80% humidified, 5% CO2 atmosphere, the absorbance at 490 nm was recorded using a microplate reader (BIO-RAD iMark^TM). The results were obtained in three independent duplicate experiments. The primary data were shown in Supplementary Materials Tables S4–S7. The IC50 values for these compounds were calculated from a non-linear regression graph plotted between the percentage of cell viability and concentration with SPSS17.0 software.

Hela cell line = test: Cytotoxicity MTS assay, Hela cell line; assay type: cell-based; conditions: for OD490 Mean / OD490 Well 1 / OD490 Well 2 / OD490 Well 3: Hela cell line; for pIC50: MTS assay, 24 h exposure
Description: as §1

CCOC(=O)C1=C(C)NC(=S)NC1c1cccc(O)c1 (stereo not drawn) [Monastrol, monastrol, reference compound]
OD490 Mean (Caco-2 cell line; 0.5μM, first assay): 0.6317
OD490 Well 1 (Caco-2 cell line; 0.5μM, first assay): 0.6883
OD490 Well 2 (Caco-2 cell line; 0.5μM, first assay): 0.6260
OD490 Well 3 (Caco-2 cell line; 0.5μM, first assay): 0.5808
OD490 Mean (Caco-2 cell line; 0.5μM, second assay): 0.6461
OD490 Well 1 (Caco-2 cell line; 0.5μM, second assay): 0.6307
OD490 Well 2 (Caco-2 cell line; 0.5μM, second assay): 0.6567
OD490 Well 3 (Caco-2 cell line; 0.5μM, second assay): 0.6508
OD490 Mean (Caco-2 cell line; 0.5μM, third assay): 0.6299
OD490 Well 1 (Caco-2 cell line; 0.5μM, third assay): 0.6325
OD490 Well 2 (Caco-2 cell line; 0.5μM, third assay): 0.6000
OD490 Well 3 (Caco-2 cell line; 0.5μM, third assay): 0.6531
OD490 Mean (Caco-2 cell line; 1μM, first assay): 0.6316
OD490 Well 1 (Caco-2 cell line; 1μM, first assay): 0.6697
OD490 Well 2 (Caco-2 cell line; 1μM, first assay): 0.6037
OD490 Well 3 (Caco-2 cell line; 1μM, first assay): 0.6213
OD490 Mean (Caco-2 cell line; 1μM, second assay): 0.6874
OD490 Well 1 (Caco-2 cell line; 1μM, second assay): 0.6746
OD490 Well 2 (Caco-2 cell line; 1μM, second assay): 0.7532
OD490 Well 3 (Caco-2 cell line; 1μM, second assay): 0.6345
OD490 Mean (Caco-2 cell line; 1μM, third assay): 0.6466
OD490 Well 1 (Caco-2 cell line; 1μM, third assay): 0.6332
OD490 Well 2 (Caco-2 cell line; 1μM, third assay): 0.6854
OD490 Well 3 (Caco-2 cell line; 1μM, third assay): 0.6211
OD490 Mean (Caco-2 cell line; 10μM, first assay): 0.6065
OD490 Well 1 (Caco-2 cell line; 10μM, first assay): 0.6414
OD490 Well 2 (Caco-2 cell line; 10μM, first assay): 0.6303
OD490 Well 3 (Caco-2 cell line; 10μM, first assay): 0.5477
OD490 Mean (Caco-2 cell line; 10μM, second assay): 0.6609
OD490 Well 1 (Caco-2 cell line; 10μM, second assay): 0.6953
OD490 Well 2 (Caco-2 cell line; 10μM, second assay): 0.6962
OD490 Well 3 (Caco-2 cell line; 10μM, second assay): 0.5912
OD490 Mean (Caco-2 cell line; 10μM, third assay): 0.5909
OD490 Well 1 (Caco-2 cell line; 10μM, third assay): 0.6012
OD490 Well 2 (Caco-2 cell line; 10μM, third assay): 0.6583
OD490 Well 3 (Caco-2 cell line; 10μM, third assay): 0.5132
OD490 Mean (Caco-2 cell line; 25μM, first assay): 0.5366
OD490 Well 1 (Caco-2 cell line; 25μM, first assay): 0.5485
OD490 Well 2 (Caco-2 cell line; 25μM, first assay): 0.5284
OD490 Well 3 (Caco-2 cell line; 25μM, first assay): 0.5329
OD490 Mean (Caco-2 cell line; 25μM, second assay): 0.5966
OD490 Well 1 (Caco-2 cell line; 25μM, second assay): 0.5969
OD490 Well 2 (Caco-2 cell line; 25μM, second assay): 0.6213
OD490 Well 3 (Caco-2 cell line; 25μM, second assay): 0.5715
OD490 Mean (Caco-2 cell line; 25μM, third assay): 0.5678
OD490 Well 1 (Caco-2 cell line; 25μM, third assay): 0.5784
OD490 Well 2 (Caco-2 cell line; 25μM, third assay): 0.5810
OD490 Well 3 (Caco-2 cell line; 25μM, third assay): 0.5439
OD490 Mean (Caco-2 cell line; 50μM, first assay): 0.4955
OD490 Well 1 (Caco-2 cell line; 50μM, first assay): 0.4127
OD490 Well 2 (Caco-2 cell line; 50μM, first assay): 0.5627
OD490 Well 3 (Caco-2 cell line; 50μM, first assay): 0.5110
OD490 Mean (Caco-2 cell line; 50μM, second assay): 0.5572
OD490 Well 1 (Caco-2 cell line; 50μM, second assay): 0.594
OD490 Well 2 (Caco-2 cell line; 50μM, second assay): 0.5177
OD490 Well 3 (Caco-2 cell line; 50μM, second assay): 0.5598
OD490 Mean (Caco-2 cell line; 50μM, third assay): 0.5174
OD490 Well 1 (Caco-2 cell line; 50μM, third assay): 0.5287
OD490 Well 2 (Caco-2 cell line; 50μM, third assay): 0.5021
OD490 Well 3 (Caco-2 cell line; 50μM, third assay): 0.5214
OD490 Mean (Caco-2 cell line; 100μM, first assay): 0.4461
OD490 Well 1 (Caco-2 cell line; 100μM, first assay): 0.4497
OD490 Well 2 (Caco-2 cell line; 100μM, first assay): 0.4701
OD490 Well 3 (Caco-2 cell line; 100μM, first assay): 0.4184
OD490 Mean (Caco-2 cell line; 100μM, second assay): 0.5109
OD490 Well 1 (Caco-2 cell line; 100μM, second assay): 0.5213
OD490 Well 2 (Caco-2 cell line; 100μM, second assay): 0.5306
OD490 Well 3 (Caco-2 cell line; 100μM, second assay): 0.4809
OD490 Mean (Caco-2 cell line; 100μM, third assay): 0.4670
OD490 Well 1 (Caco-2 cell line; 100μM, third assay): 0.4321
OD490 Well 2 (Caco-2 cell line; 100μM, third assay): 0.4767
OD490 Well 3 (Caco-2 cell line; 100μM, third assay): 0.4922
pIC50 (Caco-2 cell line; Homo sapiens, Caco-2, MTS assay, 24 h exposure): 3.95
OD490 Mean (Hela cell line; 0.5μM, first assay): 2.4571
OD490 Well 1 (Hela cell line; 0.5μM, first assay): 2.3556
OD490 Well 2 (Hela cell line; 0.5μM, first assay): 2.5698
OD490 Well 3 (Hela cell line; 0.5μM, first assay): 2.4458
OD490 Mean (Hela cell line; 0.5μM, second assay): 2.6032
OD490 Well 1 (Hela cell line; 0.5μM, second assay): 2.5874
OD490 Well 2 (Hela cell line; 0.5μM, second assay): 2.6523
OD490 Well 3 (Hela cell line; 0.5μM, second assay): 2.5698
OD490 Mean (Hela cell line; 0.5μM, third assay): 2.6247
OD490 Well 1 (Hela cell line; 0.5μM, third assay): 2.6417
OD490 Well 2 (Hela cell line; 0.5μM, third assay): 2.5470
OD490 Well 3 (Hela cell line; 0.5μM, third assay): 2.6854
OD490 Mean (Hela cell line; 1μM, first assay): 2.1630
OD490 Well 1 (Hela cell line; 1μM, first assay): 2.3365
OD490 Well 2 (Hela cell line; 1μM, first assay): 2.0131
OD490 Well 3 (Hela cell line; 1μM, first assay): 2.1393
OD490 Mean (Hela cell line; 1μM, second assay): 2.5460
OD490 Well 1 (Hela cell line; 1μM, second assay): 2.5687
OD490 Well 2 (Hela cell line; 1μM, second assay): 2.5478
OD490 Well 3 (Hela cell line; 1μM, second assay): 2.5214
OD490 Mean (Hela cell line; 1μM, third assay): 2.5064
OD490 Well 1 (Hela cell line; 1μM, third assay): 2.5748
OD490 Well 2 (Hela cell line; 1μM, third assay): 2.5214
OD490 Well 3 (Hela cell line; 1μM, third assay): 2.4230
OD490 Mean (Hela cell line; 10μM, first assay): 2.2162
OD490 Well 1 (Hela cell line; 10μM, first assay): 2.1607
OD490 Well 2 (Hela cell line; 10μM, first assay): 2.2561
OD490 Well 3 (Hela cell line; 10μM, first assay): 2.2317
OD490 Mean (Hela cell line; 10μM, second assay): 2.5812
OD490 Well 1 (Hela cell line; 10μM, second assay): 2.6541
OD490 Well 2 (Hela cell line; 10μM, second assay): 2.5541
OD490 Well 3 (Hela cell line; 10μM, second assay): 2.5354
OD490 Mean (Hela cell line; 10μM, third assay): 2.5198
OD490 Well 1 (Hela cell line; 10μM, third assay): 2.6510
OD490 Well 2 (Hela cell line; 10μM, third assay): 2.2561
OD490 Well 3 (Hela cell line; 10μM, third assay): 2.6524
OD490 Mean (Hela cell line; 25μM, first assay): 2.2546
OD490 Well 1 (Hela cell line; 25μM, first assay): 2.1835
OD490 Well 2 (Hela cell line; 25μM, first assay): 2.2875
OD490 Well 3 (Hela cell line; 25μM, first assay): 2.2928
OD490 Mean (Hela cell line; 25μM, second assay): 2.5253
OD490 Well 1 (Hela cell line; 25μM, second assay): 2.6854
OD490 Well 2 (Hela cell line; 25μM, second assay): 2.3365
OD490 Well 3 (Hela cell line; 25μM, second assay): 2.5541
OD490 Mean (Hela cell line; 25μM, third assay): 2.5000
OD490 Well 1 (Hela cell line; 25μM, third assay): 2.5874
OD490 Well 2 (Hela cell line; 25μM, third assay): 2.2584
OD490 Well 3 (Hela cell line; 25μM, third assay): 2.6541
OD490 Mean (Hela cell line; 50μM, first assay): 2.5586
OD490 Well 1 (Hela cell line; 50μM, first assay): 2.7188
OD490 Well 2 (Hela cell line; 50μM, first assay): 2.4306
OD490 Well 3 (Hela cell line; 50μM, first assay): 2.5263
OD490 Mean (Hela cell line; 50μM, second assay): 2.4511
OD490 Well 1 (Hela cell line; 50μM, second assay): 2.3541
OD490 Well 2 (Hela cell line; 50μM, second assay): 2.5478
OD490 Well 3 (Hela cell line; 50μM, second assay): 2.4514
OD490 Mean (Hela cell line; 50μM, third assay): 2.6173
OD490 Well 1 (Hela cell line; 50μM, third assay): 2.5412
OD490 Well 2 (Hela cell line; 50μM, third assay): 2.6521
OD490 Well 3 (Hela cell line; 50μM, third assay): 2.6587
OD490 Mean (Hela cell line; 100μM, first assay): 2.2182
OD490 Well 1 (Hela cell line; 100μM, first assay): 2.3464
OD490 Well 2 (Hela cell line; 100μM, first assay): 2.1470
OD490 Well 3 (Hela cell line; 100μM, first assay): 2.1612
OD490 Mean (Hela cell line; 100μM, second assay): 2.5306
OD490 Well 1 (Hela cell line; 100μM, second assay): 2.4236
OD490 Well 2 (Hela cell line; 100μM, second assay): 2.6540
OD490 Well 3 (Hela cell line; 100μM, second assay): 2.5142
OD490 Mean (Hela cell line; 100μM, third assay): 2.4597
OD490 Well 1 (Hela cell line; 100μM, third assay): 2.3654
OD490 Well 2 (Hela cell line; 100μM, third assay): 2.5784
OD490 Well 3 (Hela cell line; 100μM, third assay): 2.4352
pIC50 (Hela cell line; Homo sapiens, HeLa, 24 h): < 3.82
pIC50 (Hela cell line): < 3.82
